# Measured values published in US8420819B2, “Process for optimizing the particle size of an active pharmaceutical ingredient by crystallization” (Boehringer Ingelheim International GmbH, priority 2009, dated 2013).
# Columns and labels:
# [1] = Particle size of co-crystal batches, measured by Sympatec laser light diffraction; type: physicochemical; settings: for Particle Size D10: scale-up batches from MEK/heptane crystallization, Sympatec laser light diffraction
# [2] = Powder properties (flowability, bulk density) of crystallized particles; type: physicochemical; settings: MEK/heptane process compared to particles produced from other solvent systems
smiles,measurement,setting,value
"CCS(=O)(=O)c1cc2cc(C[C@](O)(CC(C)(C)c3ccc(F)cc3C(N)=O)C(F)(F)F)[nH]c2cn1.O=P(O)(O)O [2-[(3R)-3-(5-ethanesulfonyl-1H-pyrrolo[2,3-c]pyridin-2-ylmethyl)-4,4,4-trifluoro-3-hydroxy-1,1-dimethylbutyl]-5-fluorobenzamide phosphoric acid co-crystal]",D90,"[1]; MEK/heptane, initial concentration approximately 0.11-0.14 g/mL, seeded, high supersaturation",< 10 μm
same,D90,[1]; approximately 1.0 wt % water in the solution (between about 0.7% and 1.2%) (FIG. 2),25-30 μm
same,"particle size of the product, D90","[1]; crystallization as part of the synthesis, from acetic acid or anisole solvate, 50.0 g, KF <0.2 wt %",about 7 μm
same,D90,[1]; crystallization with 0.1 wt % water (FIG. 1),6 μm
same,D90,[1]; crystallization with 1.1 wt % water (FIG. 2),26 μm
same,D90,[1]; crystallization with 2.0 wt % water (FIG. 3),50 μm
same,D90,[1]; crystallization with <0.5 wt % water in the solution (FIG. 1),5-10 μm
same,Particle Size D10,"[1]; listed as Kilo lab batch, 1.8 kg, from acetic acid solvate",1.19 μm
same,Particle Size D10,[1]; listed as Lab batch 1 from acetic acid solvate,1.29 μm
same,Particle Size D10,[1]; listed as Lab batch 2 from acetic acid solvate,1.28 μm
same,Particle Size D10,[1]; listed as Lab batch 3 from acetic acid solvate,1.54 μm
same,Particle Size D10,[1]; listed as Lab batch from new synthesis from acetic acid solvate,1.17 μm
same,Particle Size D10,"[1]; listed as Lab batch, from anisole solvate",1.31 μm
same,Particle Size D10,"[1]; listed as Pilot plant batch A, 11 kg, from anisole solvate",1.61 μm
same,Particle Size D10,"[1]; listed as Pilot plant batch B, 22 kg, from anisole solvate",1.67 μm
same,Particle Size D10,"[1]; listed as Pilot plant batch, 9 kg, from acetic acid solvate",1.26 μm
same,"particle size of the product, D90","[1]; standalone re-crystallization process, 50.0 g co-crystal, KF ≦0.2 wt %",about 7 μm
same,"powder properties (flowability, bulk density)",[2],excellent powder properties
